Data on 1 molecule can be found in EPA's ToxValDB 9.5 (doi:10.2903/j.efsa.2005.33ar).

The structures appear in SMILES notation. A value given as a limit tells only on which side of the number the result lay.

The test system of one data set is Apis mellifera. Particulars: acute, dermal, mortality.
The next data set concerns Oryctolagus sp. The settings on record: reproduction developmental; body weight.
The next data set deals with Canidae. The settings on record: chronic; duration: 1 years; Dog Other; body weight.
For the next data set, the system named is Bird. The settings on record: acute; oral; unspecified; mortality.
The next data set concerns Daphnia magna. The settings on record: chronic/long-term; duration: 21 days; mobility.
In a further data set the test system is Aphidius rhopalosiphi. The settings on record: not reported; mortality.
In another data set the test system is Rattus norvegicus. Particulars: for NOAEL: reproduction developmental.
For the next data set, the system named is Bibionidae. The settings on record: chronic/long-term; duration: 26 days.
A further data set relates to Landoltia sp. The settings on record: chronic/long-term; biomass.

For orientation: NOAEL means the highest tested level that showed no adverse finding. As to `CC1(C)CC/C(=C\c2ccc(Cl)cc2)C1(O)Cn1cncn1` (stereo not drawn) [Triticonazole], the LC50 with Oncorhynchus mykiss (acute, duration: 96 hours, mortality) is over 3.6 µg/mL; in the data set on Tagia sp. (acute, duration: 14 days, mortality), over 1000 mg/kg. In addition, the NOEC stood at 0.01 mg/L in the data set on Oncorhynchus mykiss (chronic/long-term, duration: 28 days, growth); 500 mg/kg in the data set with Tagia sp. (chronic/long-term, duration: 56 days, reproduction); 0.092 mg/L in the data set on Daphnia magna; 0.0777 mg/L with Bibionidae; 0.33 mg/L with Landoltia sp.. Further, the LD50 was over 156 µg/piece with Apis mellifera; over 100 µg/piece with Apis mellifera (duration: 48 hours); over 693 mg/kg in the data set on Colinus virginianus (acute, oral, diet, mortality); over 2000 mg/kg with Bird; over 2000 mg/kg with Rattus norvegicus (acute, mortality). Besides, the NOAEL in the data set on Oryctolagus sp. was found to be 5 mg/kg-day; in the data set on Canidae, 2.5 mg/kg-day; in the data set on Colinus virginianus (reproduction developmental), 19.5 mg/kg-day; in the data set on Rattus norvegicus (F) it was 48 mg/kg-day; in the data set with Rattus norvegicus (M), 49 mg/kg-day. Further, the LEL in the data set with Aphidius rhopalosiphi came out at 25 g/ha.
